# Like-named read-outs stand apart in the source and are kept apart here.
# Assays:
# [1] = test system: chronic constriction injury-induced PTPN in C57BL/6J mice; experiment: PWT of operated limb, PS applied to contralateral hind paw, PTPN model (Example 8); assay type: in vivo, mouse
# Description: Group 2: vehicle control (n=6) • 3. Group 3: PS 8% (n=6)
# The PWT test was performed on day 4.
# Additionally, in a second study, the speed at which PS can treat pain associated with PTPN was assessed by assessing the effect of PS on mechanical allodynia shortly after topical administration of PS. As above, PTPN was induced using chronic constriction injury, by ligating the left sciatic nerve, to induce neuropathic pain manifested as allodynia affecting the left limb of the mice. PS (as a 5% gel) was applied only once onto the contralateral (right) hind paw of mice, prior to determining mechanical allodynia on the operated limb at different time points post-dosing.
# Group 2: PS 5%, assessed at t=0.5 h post-dosing (n=5) • 3. Group 3: PS 5%, assessed at t=1.0 h post-dosing (n=5) • 4. Group 4: PS 5%, assessed at t=2.0 h post-dosing (n=5)
# [2] = test system: chronic constriction injury-induced peripheral neuropathy in C57BL/6J mice; experiment: Thermal allodynia PWL, chronic constriction injury model of PTPN, topical (Example 7); assay type: in vivo, mouse; conditions: PS 5% topical
# COX-2 = target: T1, COX-2 (Homo sapiens, UniProt P35354); conditions: background statement; cited from earlier work
# T1 sequence (P35354 18-604): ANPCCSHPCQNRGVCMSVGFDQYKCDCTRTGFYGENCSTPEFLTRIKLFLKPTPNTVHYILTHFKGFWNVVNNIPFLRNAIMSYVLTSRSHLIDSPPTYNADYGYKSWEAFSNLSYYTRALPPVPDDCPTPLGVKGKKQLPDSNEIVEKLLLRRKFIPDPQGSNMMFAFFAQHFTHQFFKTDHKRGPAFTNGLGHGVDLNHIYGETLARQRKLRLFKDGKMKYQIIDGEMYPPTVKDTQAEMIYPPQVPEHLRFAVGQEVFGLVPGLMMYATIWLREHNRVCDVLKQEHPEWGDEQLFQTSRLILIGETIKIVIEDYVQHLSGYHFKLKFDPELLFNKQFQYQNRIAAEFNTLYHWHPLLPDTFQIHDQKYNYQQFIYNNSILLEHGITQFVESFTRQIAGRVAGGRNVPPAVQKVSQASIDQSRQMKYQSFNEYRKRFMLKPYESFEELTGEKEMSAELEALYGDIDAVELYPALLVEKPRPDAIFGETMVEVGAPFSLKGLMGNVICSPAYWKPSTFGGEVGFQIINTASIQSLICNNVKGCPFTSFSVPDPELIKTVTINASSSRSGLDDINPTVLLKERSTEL
# COX-1 = COX-1 (Homo sapiens, UniProt P23219); conditions: background statement; cited from earlier work
# [3] = test system: paclitaxel-induced CIPN in C57BL/6J mice; experiment: Thermal allodynia PWL (radiant heat), mouse model of CIPN, oral administration (Example 5); conditions: day 16 of treatment, oral PS 50 mg/kg, sulindac 33 mg/kg
# Description: Group 1: paclitaxel plus vehicle (n=8) • 2. […] Group 3: paclitaxel pluse sulindac (n=8)
# The animal is placed into a plastic box with an elevated glass floor. The beam of the lamp probe is focused on the paw plantar surface, until the animal withdraws the paw, and sensors in the device shut off the lamp. The thermal allodynia threshold is defined as the latency time until paw withdrawal (PWL) and expressed in seconds (sec) or thermal allodynia threshold.
# [4] = Safety of PS ointment applied to hind paws of mice; assay type: in vivo, mouse; conditions: PS ointment thrice daily to the hind paws of mice for up to 22 days
# Description: This finding is in keeping with the known safety profile of PS.
# [5] = Preliminary in vivo evidence, topical PS hydrogel, PHN (Example 19)
# [6] = test system: chronic constriction injury-induced peripheral neuropathy in C57BL/6J mice; experiment: PWT (von Frey), chronic constriction injury model of PTPN, topical (Example 7); conditions: day 14; PS 5% gel or sulindac 0.7% gel on left paw three times a day for 14 days; pregabalin once by oral gavage 1 h before
# Description: Group 1: ligation only (i.e, surgical control with no treatment, n=5-7) • 2. Group 2: vehicle control (n=5-7) • 3. […] Group 4: 0.7% sulindac (n=5-7) • 5.
# Briefly, for determining mechanical allodynia, pain threshold responses were measured using the well-established method of von Frey filaments in line with that performed in the earlier Examples. The PWT test was performed on day 14. The mechanical threshold, expressed as g, indicates the force of the von Frey filament to which the animal reacted.
# [7] = test system: paclitaxel-induced central sensitization in C57/BL mice; experiment: Paw withdrawal threshold (von Frey), paclitaxel model, topical PS (Example 1); conditions: day 10, about 30 min after last application; PS 8% hydrogel topically to both hind paws 3 times a day for 10 days
# Description: The paclitaxel was administered into all study groups once a day for 3 days.
# The first doses were administered 2 days after the last administration of paclitaxel.
# The study groups were as follows: • 1. Group 1: paclitaxel only (n=9) • 2. Group 2: paclitaxel plus vehicle (n=10) • 3.
# In order to determine the outcome of the treatment, pain threshold responses were measured using the well-established method of von Frey filaments. […] The results of the PWT test are expressed as force applied (gm). […] The data is expressed as percent change from the respective baseline value.
# [8] = test system: paclitaxel-induced central sensitization in C57/BL/6J mice; experiment: Cold allodynia (acetone test), paclitaxel model (Example 3); assay type: in vivo, mouse; conditions: PS 5% for 15 days; day 15
# Description: To determine the outcome of treatment, assessment of mechanical allodynia was performed. […] Both methods of assessing allodynia are described in Toma W, et al. Neuropharmacology 2017; 117:305-15. Mechanical and cold allodynia are determined at least one day apart in the same animal.
# The acetone test was used. Briefly, acetone was applied onto the plantar surface of each hind paw. The time each mouse spent licking, lifting, and/or shaking the hind paw recorded over 60 seconds was the score for cold allodynia. Measurements were performed on day-8 (before the first paclitaxel injection), the day of starting treatment (day 0) and then on day 15.
# [9] = Preliminary in vivo evidence, PS to the ocular surface, corneal neuropathic pain (Example 22); conditions: topical PS to the ocular surface
# [10] = Pharmacokinetics and biodistribution of PS upon oral administration (Example 27); assay type: in vivo, rat; conditions: rats, single oral dose of PS 250 mg/kg; for AUC(0-t) / Cmax / half-life: Sprague-Dawley, rat; for AUC(0-t): read-out: AUC0-24 h; for Cmax: read-out: Cmax, Mean ± SEM
# Description: Approximately 800 μL of blood were collected through cardiac puncture and immediately centrifuged.
# Tissue samples were harvested using separate dissection instruments for each tissue sample to avoid cross contamination, and snap frozen. The levels of the test drug were determined by HPLC.
# As previously described (Wen et al, 2019), each plasma sample was mixed with double volume of acetonitrile and centrifuged at 13,200 rpm for 15 min. Tissue samples were weighed, ddH2O (100-300 μL, depending on tissue weight) was added, and they were homogenized. Following addition of acetonitrile (twice the volume of the homogenate), the mixture was sonicated for 10 min, centrifuged at 13,200 rpm for 15 min, and analyzed by HPLC, as reported (Wen et al, 2019).
# Briefly, the HPLC system consisted of a Waters Alliance 2695 Separations Module (Milford, MA, USA) equipped with a Waters 2998 photodiode array detector (328 nm) and a Thermo Hypersil BDS C18 column (150×4.6 mm, particle size 3 pm). The mobile phase consisted of a gradient between solvent A (formic acid, CH3CN, H2O (0.1:4.9:95 v/v/v)) and solvent B (CH3CN) at a flow rate of 1 mL-min−1 at 30° C. We applied gradient elution from 30 to 100% solvent B from 0-6 min, and it was maintained at 100% solvent B until 8 min.
# [11] = PS to outer surface of the eyelid in a subject after LASIK (Example 22); assay type: in vivo; conditions: topical PS to the outer surface of the eyelid, one subject
# [12] = test system: paclitaxel-induced pain associated with central sensitization in C57BL/6J mice; experiment: Mechanical allodynia (von Frey), paclitaxel-induced pain, topical PS 8% (Example 2); assay type: in vivo, mouse
# Description: (§1) Food and water were available ad libitum.
# (§2) Paw withdrawn, licking or shaking were considered positive responses.
# [13] = test system: vincristine-induced pain associated with central sensitization in C57BL/6J mice; experiment: Mechanical allodynia (von Frey), vincristine-induced pain, topical PS 8% (Example 2); assay type: in vivo, mouse
# Description: as §1
# Protocol for the Treatment of Established Pain Associated with Central Sensitization with PS
# as §2
# [14] = test system: chronic constriction injury-induced peripheral neuropathy in C57BL/6J mice; experiment: PWT (von Frey), PTPN model, oral administration (Examples 9 and 10); conditions: day 6; PS orally three times a day for 6 days at 100 mg/kg
# Description: Group 1: ligation only (i.e, surgical control with no treatment, n=9) • 2. Group 2: vehicle (n=9) • 3.
# Mechanical allodynia was determined using the method of von Frey filaments in line with that performed in the earlier Examples. The PWT test was performed on day 6. The mechanical threshold, expressed as g, indicates the force of the von Frey filament to which the animal reacted.
# Sequence of COX-1 (P23219 24-599): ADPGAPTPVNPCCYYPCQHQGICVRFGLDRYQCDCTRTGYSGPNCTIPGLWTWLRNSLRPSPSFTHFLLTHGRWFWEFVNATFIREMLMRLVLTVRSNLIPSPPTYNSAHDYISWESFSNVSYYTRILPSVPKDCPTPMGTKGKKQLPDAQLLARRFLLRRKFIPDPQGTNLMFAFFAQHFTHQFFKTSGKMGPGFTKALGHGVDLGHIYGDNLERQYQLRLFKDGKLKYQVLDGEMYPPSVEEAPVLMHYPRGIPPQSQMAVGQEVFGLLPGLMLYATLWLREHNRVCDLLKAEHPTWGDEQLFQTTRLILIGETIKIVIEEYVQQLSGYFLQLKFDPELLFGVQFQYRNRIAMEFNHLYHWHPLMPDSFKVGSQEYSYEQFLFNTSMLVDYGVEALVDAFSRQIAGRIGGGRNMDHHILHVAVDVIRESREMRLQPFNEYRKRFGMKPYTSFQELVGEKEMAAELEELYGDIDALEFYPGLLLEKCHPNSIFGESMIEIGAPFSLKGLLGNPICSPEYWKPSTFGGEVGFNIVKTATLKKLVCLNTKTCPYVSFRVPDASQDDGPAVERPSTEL
structure (smiles),measurement,setting,value
"CCOP(=O)(OCC)OCCCCOC(=O)CC1=C(C)/C(=C/c2ccc([S+](C)[O-])cc2)c2ccc(F)cc21 (centres unmarked) [PS, phosphosulindac]","PWT, g Mean ± SEM","[1]; day 4, operated left limb, PS 8% gel on contralateral (right) hind paw 3 times a day for 4 days",1.16 ± 0.04 g
same,"PWT, g Mean ± SEM","[1]; t = 0.5 h post-dosing, PS 5% gel applied once on contralateral hind paw",1.24 ± 0.10 g
same,"PWT, g Mean ± SEM","[1]; t = 1.0 h post-dosing, PS 5% gel applied once on contralateral hind paw",1.16 ± 0.16 g
same,"PWT, g Mean ± SEM","[1]; t = 2.0 h post-dosing, PS 5% gel applied once on contralateral hind paw",1.10 ± 0.19 g
same,"PWL, sec Mean ± SEM",[2],9.1 ± 2.9 s
same,inhibition of COX-2,COX-2,does not inhibit
same,inhibition of COX-1,COX-1,does not inhibit
same,"PWL, sec Mean ± SEM",[3],10.78 ± 1.1 s
same,topical or systemic side effects,[4],no topical or systemic side effects
same,analgesic effect on neuropathic pain associated with PHN,[5],striking analgesic effect
same,"PWT, g Mean ± SEM",[6],1.30 ± 0.15 g
same,"PWT, % baseline Mean ± SEM",[7],102.55 ± 4.92 % baseline
same,cold allodynia score (acetone test),[8],3.1 ± 0.4 s
same,analgesic effect on corneal neuropathic pain,[9],striking analgesic effect
same,AUC(0-t),[10]; cerebellum,0.2 µM·h
same,Cmax,[10]; cerebellum,300 ± 70 nM
same,AUC(0-t),[10]; medulla,0.3 µM·h
same,Cmax,[10]; medulla,500 ± 100 nM
same,half-life,[10]; stomach,3.3 h
same,AUC(0-t),[10]; stomach,1280 µM·h
same,Cmax,[10]; stomach,661000 ± 6500 nM
same,half-life,[10]; vagus nerve,3.3 h
same,AUC(0-t),[10]; vagus nerve,1.7 µM·h
same,Cmax,[10]; vagus nerve,1200 ± 200 nM
same,detection in the systemic circulation,[10],No PS was detected
same,effect on chronic pain after LASIK,[11],dramatically reduced chronic pain
same,"mechanical allodynia score, mean±SEM","[12]; day 0 (initiation of treatment), paclitaxel-induced pain",0.79 ± 0.08 g
same,"mechanical allodynia score, mean±SEM","[12]; day 5, PS 8% ointment 3x/day to hind paws",1.17 ± 0.07 g
same,"mechanical allodynia score, mean±SEM","[12]; day 16, PS 8% ointment 3x/day to hind paws",2.49 ± 0.18 g
same,increase of allodynia score compared to day 0,[13]; PS 8% ointment 3x/day for 16 days,114%
same,"mechanical allodynia score, mean±SEM",[13]; day 16,1.5 ± 0.09 g
same,"PWT, g Mean ± SEM",[14],1.63 ± 0.38 g
